# Read-outs that look alike come from different tables or passages of the source.
# Key:
# [1] = system: rat hepatic microsomal PTPases; details: PTPase activity, compound at 50 μM
# Human recombinant PTP1B = target: T1, Human recombinant PTP1B (Homo sapiens, UniProt P18031); assay type: biochemical
# T1 construct: made in house
# T1 sequence (P18031 1-435): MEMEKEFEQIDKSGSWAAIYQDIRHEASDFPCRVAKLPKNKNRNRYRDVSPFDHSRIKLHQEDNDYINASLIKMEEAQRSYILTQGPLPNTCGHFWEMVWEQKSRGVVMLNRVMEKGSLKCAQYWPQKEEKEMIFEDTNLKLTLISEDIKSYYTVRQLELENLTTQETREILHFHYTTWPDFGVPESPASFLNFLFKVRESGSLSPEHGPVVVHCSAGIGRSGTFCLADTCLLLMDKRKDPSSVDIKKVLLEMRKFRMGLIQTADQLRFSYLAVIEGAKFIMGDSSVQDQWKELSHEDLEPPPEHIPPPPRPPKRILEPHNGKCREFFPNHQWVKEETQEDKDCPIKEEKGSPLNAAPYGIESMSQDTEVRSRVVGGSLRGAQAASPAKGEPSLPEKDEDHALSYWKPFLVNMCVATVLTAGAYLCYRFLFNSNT
SMILES,% Change from Control [1] [%],IC50 (Human recombinant PTP1B; read-out: IC50) [nM],IC50 (Human recombinant PTP1B) [nM]
"CN(C)CCSc1c2ccccc2c(-c2cc(Br)c(O[C@H](Cc3ccccc3)C(=O)O)c(Br)c2)c2c1sc1ccccc12 [Example 133, (R)-2-{2,6-Dibromo-4-[6-(2-dimethylamino-ethylsulfanyl)-benzo[b]naphtho[2,3-d]thiophen-11-yl]-phenoxy}-3-phenyl-propionic acid]",-27.89,506,
"O=C(O)C(Cc1cccnc1)Oc1c(Br)cc(-c2c3ccccc3c(Br)c3sc4ccccc4c23)cc1Br (centres unmarked) [Example 137, 2-[2,6-Dibromo-4-(6-bromo-benzo[b]naphtho[2,3-d]thiophen-11-yl)-phenoxy]-3-pyridin-3-yl-propionic acid]",-64.92,341,
"C[C@H](Oc1cc(-c2c3ccccc3c(Br)c3sc4ccccc4c23)ccc1Br)C(=O)O [Example 143, (S)-2-[2-Bromo-5-(6-bromo-benzo[b]naphtho[2,3-d]thiophen-11-yl)-phenoxyl]-propionic acid]",-76.98,1170,
"C[C@@H](Oc1cc(-c2c3ccccc3c(Br)c3sc4ccccc4c23)ccc1Br)C(=O)O [Example 144, (R)-2-[2-bromo-5-(6-Bromo-benzo[b]naphtho[2,3-d]thiophen-11-yl)-phenoxyl]-propionic acid]",-85.24,1130,
O=C(O)[C@@H](CCN1C(=O)c2ccccc2C1=O)Oc1ccc(-c2c3ccccc3cc3sc4ccccc4c23)cc1 [Example 148],-82.62,1230,
"O=C(O)C[C@@H](Oc1c(Br)cc(-c2c3ccccc3c(Br)c3sc4ccccc4c23)cc1Br)C(=O)O [Example 152, (R)-2-[2,6-Dibromo-4-(6-bromo-benzo[b]naphtho[2,3-d]thiophen-11-yl)-phenoxy]-succinic acid]",-95.22,994,
NC(=O)COc1c(Br)cc(-c2c3ccccc3c(Br)c3sc4ccccc4c23)cc1Br [Example 165],-3.12,665,
NC(=O)[C@@H](Cc1ccccc1)Oc1c(Br)cc(-c2c3ccccc3c(Br)c3sc4ccccc4c23)cc1Br [Example 166],-26.86,565,
N#CCCNC(=O)[C@@H](Cc1ccccc1)Oc1c(Br)cc(-c2c3ccccc3c(Br)c3sc4ccccc4c23)cc1Br [Example 168],-17.85,994,
"N#CCOc1c(Br)cc(-c2c3ccccc3c(Br)c3sc4ccccc4c23)cc1Br [Example 169, [2,6-Dibromo-4-(6-bromo-benzo[b]naphtho[2.3-d]thiophen-11-yl)-phenoxy]-acetonitrile]",-9.30,1220,
"N#C[C@@H](Cc1ccccc1)Oc1c(Br)cc(-c2c3ccccc3c(Br)c3sc4ccccc4c23)cc1Br [Example 170, (R)-2-[2,6-Dibromo-4-(6-bromo-benzo[b]naphtho[2,3-d]thiophen-11-yl)-phenoxy]-3-phenyl-propionitrile]",-18.79,607,
"O=P(O)(O)Oc1c(Br)cc(-c2c3ccccc3c(Br)c3sc4ccccc4c23)cc1Br [Example 177, Phosphoric acid Mono-[2,6-dibromo-4-(6-bromo-benzo[b]naphtho[2,3-d]thiophen-11-yl)-phenyl]ester]",-69.35,,1080
"CC(C)(Oc1c(Br)cc(-c2c3ccccc3c(Br)c3sc4ccccc4c23)cc1Br)C(=O)O [Example 178, 2-[2,6-Dibromo-4-(6-bromo-benzo[b]naphtho[2,3-d]thiophen-11-yl)-phenoxy]-2-methyl-propionic acid]",-42.41,480,
C[C@H](CC(=O)O)Oc1c(Br)cc(-c2c3ccccc3c(Br)c3sc4ccccc4c23)cc1Br [Example 180],-50.64,384,
"COc1c(O)cc(-c2c3ccccc3c(Br)c3sc4ccccc4c23)cc1Br [Example 195, 3-Bromo-5-(6-bromo-benzo[b]naphtho[2,3-d]thiophen-11-yl)-2-methoxy-phenol]",-29.34,889,
"Oc1c(F)ccc(-c2c3ccccc3c(Br)c3sc4ccccc4c23)c1F [Example 200, 3-(6-Bromo-benzo[b]naphtho[2,3-d]thiophen-11-yl)-2,6 difluoro-phenol]",-50.62,1170,
"Oc1c(Br)cc(-c2c3ccccc3c(Br)c3oc4ccccc4c23)cc1Br [Example 210, 2,6-Dibromo-4-(6-bromo-benzo[b]naphtho[2,3-d]furan-11ly)-phenol]",-51.55,1060,

# The next lines start with results.
% Change from Control [1] [%],IC50 (Human recombinant PTP1B; read-out: IC50) [nM],SMILES,IC50 (Human recombinant PTP1B) [nM]
-69.86,93,"O=C(O)[C@@H](Cc1ccccc1)Oc1c(Br)cc(-c2c3ccccc3c(Sc3ccncc3)c3sc4ccccc4c23)cc1Br [Example 134, (R)-2-{2,6-Dibromo-4-[6-(pyridin-4-ylsulfanyl)-benzo[b]naphtho[2,3-d]thiophen-11-yl]-phenoxy}-3-phenyl-propionic acid]",
-71.19,204,"CC(C)c1cc(-c2c3ccccc3c(Br)c3sc4ccccc4c23)cc(C(C)C)c1O[C@H](C)C(=O)O [Example 140, (R)-2-[4-(6-Bromo-benzo[b]naphtho[2,3-d]thiophen-11-yl)-2,6-diisopropyl-phenoxy)-propionic acid]",
-76.58,126,Cc1c2ccccc2c(-c2cc(Br)c(O[C@H](Cc3ccccc3)C(=O)O)c(Br)c2)c2c1sc1ccccc12 [Example 141],
-104.68,103,"O=C(O)[C@H](Oc1c(Br)cc(-c2c3ccccc3c(Br)c3sc4ccccc4c23)cc1Br)c1ccccc1 [Example 142, (R)-[2,6-Dibromo-4-(6-bromo-benzo[b]naphtho[2,3-d]thiophen-11-yl)-phenoxy]-phenyl-acetic acid]",
-92.46,207,O=C(O)[C@@H](CCN1C(=O)c2ccccc2C1=O)Oc1ccc(-c2c3ccccc3c(Br)c3sc4ccccc4c23)cc1 [Example 150],
-71.12,26,"O=C(O)C(Cc1ccc2ccccc2c1)Oc1c(Br)cc(-c2c3ccccc3c(Br)c3sc4ccccc4c23)cc1Br (centres unmarked) [Example 156, 2-[2,6-Dibromo-4-(6-bromo-benzo[b]naphtho[2,3-d]thiophen-11-yl)-phenoxy]-3-naphthalen-2yl-propionic acid]",
-60.67,145,"O=P(O)(O)COc1c(Br)cc(-c2c3ccccc3c(Br)c3sc4ccccc4c23)cc1Br [Example 162, [2,6-Dibromo-4-(6-bromo-benzo[b]naphtho[2,3-d]thiophen-11-yl)-phenoxymethyl]-phosphonic acid]",
-71.04,302,"Brc1cc(-c2c3ccccc3c(Br)c3sc4ccccc4c23)cc(Br)c1OCc1nnn[nH]1 [Example 171, 5-[2,6-Dibromo-4-(6-bromo-benzo[b]naphtho[2,3-d]thiophen-11-yl)-phenoxymethyl]-1 H-tetrazole]",
-66.27,203,O=C(O)CCOc1c(Br)cc(-c2c3ccccc3c(Br)c3sc4ccccc4c23)cc1Br [Example 179],
-46.44,45,"O=C(O)[C@@H](Cc1ccccc1)Oc1c(Br)cc(-c2c3ccccc3c(OCc3ccccc3)c3sc4ccccc4c23)cc1Br [Example 184, (R)-2-[4-(6-Benzyloxy-benzo[b]naphtho[2,3-d]thiophen-11-yl]-2-6-dibromo-phenoxy}-3-phenyl-propionic acid]",
-80.08,174,"COc1c(Br)cc(-c2c3ccccc3c(Br)c3sc4ccccc4c23)cc1O[C@H](Cc1ccccc1)C(=O)O [Example 196, (R)-2-[3-Bromo-5-(6-bromo-benzo[b]naphtho[2,3-d]thiophen-11-yl)-2-methoxy-phenoxy]-3-phenyl-propionic acid]",
